ChEMBL document CHEMBL3526012, “Metabolism of (2S)-pterosin A: identification of the phase I and phase II metabolites in rat urine” (Drug Metab Dispos, 2012)
Values after ≈ are worked out from the molar mass of the structure shown.

Assays:
[1] = Drug recovery in Wistar rat urine assessed as retention time treated with (2S)-Pterosin at 100 mg/kg, po administered via gavage measured up to 24 hrs by HRESIMS analysis; format: ADME, organism-based; design: dose 100 mg/kg, route oral; settings: in vivo
[2] = Drug recovery in Wistar rat urine treated with (2S)-Pterosin at 100 mg/kg, po administered via gavage measured up to 24 hrs by reverse-phase HPLC analysis; format: ADME, organism-based; design: dose 100 mg/kg, route oral; settings: in vivo
[3] = test system: HeLa; test: Cytotoxicity against human HeLa cells; format: cell-based
[4] = Cytotoxicity against human HL60 cells; format: cell-based; settings: HL-60
[5] = Drug recovery in Wistar rat urine assessed as retention time at 100 mg/kg, po administered via gavage measured up to 24 hrs by HRESIMS analysis; format: ADME, organism-based; design: dose 100 mg/kg, route oral; settings: in vivo
[6] = Drug recovery in Wistar rat urine at 100 mg/kg, po administered via gavage measured up to 24 hrs by HRESIMS analysis; format: ADME, organism-based; design: dose 100 mg/kg, route oral; settings: read-out: Drug recovery
[7] = Drug recovery in Wistar rat urine at 100 mg/kg, po administered via gavage measured up to 24 hrs by reverse-phase HPLC analysis; format: ADME, organism-based; design: dose 100 mg/kg, route oral; settings: in vivo

| Retention_time [1] [min] | Drug recovery [2] | SMILES | further results |
| --- | --- | --- | --- |
| 45.33 | metabolite_detected | COC(=O)Cc1c(C)cc2c(c1C)C(=O)[C@](C)(CO)C2 | – |
| 37.27 | metabolite_detected | Cc1cc2c(c(C)c1CC(=O)O)C(=O)[C@](C)(CO)C2 | – |
| 29.61 | metabolite_detected | Cc1c2c(cc3c1C(=O)[C@](C)(CO)C3)C(=O)OCC2 | – |
| 20.74 | metabolite_detected | Cc1cc2c(c(C)c1CCO)C(=O)[C@](C)(CO)[C@@H]2O | – |
| 48.39 | metabolite_detected | Cc1cc2c(c(C)c1CC(=O)O)C(=O)C(C)C2 (racemic) | IC50 [3]: 30 µg/mL (≈ 129 µM) |
| 35.09 | metabolite_detected | Cc1cc2c(c(C)c1C(O)CO)C(=O)C(C)C2 (racemic) | – |
| 44.2 | metabolite_detected | Cc1cc2c(c(C)c1CCO[C@@H]1O[C@H](C(=O)O)[C@@H](O)[C@H](O)[C@H]1O)C(=O)C(C)C2 (stereo partly drawn) | – |
| 25.27 | metabolite_detected | Cc1cc2c(c(C)c1CCO)C(=O)[C@H](C)[C@@H]2O | – |
| 32.08 | metabolite_detected | Cc1cc2c(c(C)c1CCO)C(=O)[C@](C)(CO[C@@H]1O[C@H](C(=O)O)[C@@H](O)[C@H](O)[C@H]1O)C2 | – |
| 49.54 | metabolite_detected | Cc1cc2c(c(C)c1CCO)C(=O)C(C)C2 (racemic) | IC50 [4]: 8.7 µg/mL (≈ 39.9 µM) |
| 29.61 | metabolite_detected | Cc1cc2c(c(C)c1CCO[C@@H]1O[C@H](C(=O)O)[C@@H](O)[C@H](O)[C@H]1O)C(=O)[C@](C)(CO)C2 | – |
| 29.61 | metabolite_detected | Cc1c(CCO)c(CO)cc2c1C(=O)C(C)C2 (racemic) | – |
| 26.11 | metabolite_detected | Cc1cc2c(c(C)c1CC(=O)O)C(=O)[C@](C)(CO)[C@@H]2O | – |
| 46.2 | metabolite_detected | Cc1cc2c(c(C)c1C)C(=O)[C@](C)(CO)[C@@H]2O | – |
| 24.6 | metabolite_detected | Cc1cc2c(c(C)c1CC(=O)O[C@@H]1O[C@H](C(=O)O)[C@@H](O)[C@H](O)[C@H]1O)C(=O)[C@](C)(CO)C2 | – |
| – | – | Cc1cc2c(c(C)c1CCO)C(=O)[C@](C)(CO)C2 | Retention_time [5]: 36.51 min; dose excreted at 24 h [6]: 2.64%; Drug recovery [7]: Active |
| 14.12 | metabolite_detected | Cc1cc2c(c(C)c1CCO)C(=O)[C@](C)(CO)[C@H]2O | – |
| 20.2 | metabolite_detected | Cc1c(CCO)c(CO)cc2c1C(=O)[C@](C)(CO)C2 | – |
| 23.37 | metabolite_detected | Cc1c2c(cc3c1C(=O)[C@](C)(CO)C3)COC(=O)C2 | – |
| 27.6 | metabolite_detected | Cc1cc2c(c(C)c1CCO)C(=O)[C@@H](C)[C@@H]2O | – |
